In ChEMBL document CHEMBL1201862, “PubChem BioAssay data set” (2004):
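A five-concentration, 48-hour dose response in 96-well plates underlies each endpoint, interpolated linearly between surrounding concentrations. GI50: concentration for 50% inhibition of growth.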 The source made the active and inactive calls. Cut-off read from the data, not from the text of the source: active = GI50 up to about 1.1 µM and inactive = higher.

Legend:
Assay in all cases: growth of human tumour cells (NCI), 48 h
A549 = system: A549
DU-145 = system: DU-145
HCT-116 = system: HCT-116
HCT-15 = system: HCT-15
MDA-MB-231 = system: MDA-MB-231
MDA-MB-435 = system: MDA-MB-435
NCI-H460 = system: NCI-H460
OVCAR-4 = system: OVCAR-4
OVCAR-8 = system: OVCAR-8
PC-3 = system: PC-3
RPMI-8226 = system: RPMI-8226
SF-268 = system: SF-268
SK-MEL-5 = system: SK-MEL-5
SN12C = system: SN12C
SNB-19 = system: SNB-19
SR = system: SR
T47D = system: T47D
TK-10 = system: TK-10
UACC-257 = system: UACC-257
UO-31 = system: UO-31

SMILES | GI50 (A549) | GI50 (DU-145) | GI50 (HCT-116) | GI50 (HCT-15) | GI50 (MDA-MB-231) | GI50 (MDA-MB-435) | GI50 (NCI-H460) | GI50 (OVCAR-4) | GI50 (OVCAR-8) | GI50 (PC-3) | GI50 (RPMI-8226) | GI50 (SF-268) | GI50 (SK-MEL-5) | GI50 (SN12C) | GI50 (SNB-19) | GI50 (SR) | GI50 (T47D) | GI50 (TK-10) | GI50 (UACC-257) | GI50 (UO-31)
COc1cc(C2SC(=N)Nc3c2c(C)nn3C(=O)c2ccc(Cl)cc2)cc(OC)c1OC (stereo not drawn) | > 10 µM (inactive) | > 10 µM (inactive) | > 10 µM (inactive) | > 10 µM | > 10 µM (inactive) | > 10 µM (inactive) | > 10 µM (inactive) | > 10 µM (inactive) | > 10 µM (inactive) | > 10 µM (inactive) | > 10 µM (inactive) | > 10 µM (inactive) | > 10 µM (inactive) | > 10 µM (inactive) | > 10 µM (inactive) | > 10 µM (inactive) | > 10 µM (inactive) | > 10 µM (inactive) | > 10 µM (inactive) | –
O=C(O)C1(Cc2ccc3c(c2)CCC3)Cc2ccccc2C1 | 43 µM (inactive) | > 100 µM (inactive) | 50.4 µM (inactive) | 54.2 µM | > 100 µM (inactive) | > 100 µM (inactive) | 52.1 µM (inactive) | 23.3 µM (inactive) | 63.7 µM (inactive) | 63.5 µM (inactive) | 71.1 µM (inactive) | 52.7 µM (inactive) | > 100 µM (inactive) | > 100 µM (inactive) | > 100 µM (inactive) | > 100 µM (inactive) | 49.2 µM (inactive) | > 100 µM (inactive) | > 100 µM (inactive) | 46.1 µM (inactive)
CSc1nc(Br)nc2ncn(C3CC(Oc4ccc(C)cc4)C(COc4ccc(C)cc4)O3)c12 (stereo not drawn) | > 100 µM (inactive) | > 100 µM (inactive) | > 100 µM (inactive) | > 100 µM | > 100 µM (inactive) | > 100 µM (inactive) | > 100 µM (inactive) | > 100 µM (inactive) | 80.7 µM (inactive) | > 100 µM (inactive) | > 100 µM (inactive) | > 100 µM (inactive) | > 100 µM (inactive) | > 100 µM (inactive) | > 100 µM (inactive) | 3.72 µM (inactive) | > 100 µM (inactive) | > 100 µM (inactive) | > 100 µM (inactive) | 17.7 µM (inactive)
C=C1C(=O)O[C@H]2[C@H]3O[C@@H](C[C@@H]12)[C@@]1(C)CC[C@H](O1)[C@H](C)CCC[C@H]3C | 2.16 µM (inactive) | 1.52 µM (inactive) | 1.04 µM (active) | 1.81 µM | 1.65 µM (inactive) | 1.32 µM (inactive) | 1.76 µM (inactive) | 1.58 µM (inactive) | 1.38 µM (inactive) | 1.61 µM (inactive) | 0.512 µM (active) | 1.67 µM (inactive) | 1.42 µM (inactive) | 2.22 µM (inactive) | 10.1 µM (inactive) | 0.148 µM (active) | 2.21 µM (inactive) | 1.62 µM (inactive) | 1.91 µM (inactive) | 1.56 µM (inactive)
C[C@H]1C[C@H]2[C@@H]3CCC4=CC(=O)C=C[C@]4(C)C3=CC[C@]2(C)[C@@]1(O)C(=O)CO | > 100 µM (inactive) | > 100 µM (inactive) | > 100 µM (inactive) | > 100 µM | > 100 µM (inactive) | > 100 µM (inactive) | > 100 µM (inactive) | > 100 µM (inactive) | > 100 µM (inactive) | 99.5 µM (inactive) | 37.2 µM (inactive) | > 100 µM (inactive) | 83.4 µM (inactive) | > 100 µM (inactive) | > 100 µM (inactive) | 37.7 µM (inactive) | 69.8 µM (inactive) | > 100 µM (inactive) | > 100 µM (inactive) | > 100 µM (inactive)
O=C(O)c1cc([N+](=O)[O-])cc2c(=O)c3cnccc3[nH]c12 | – | > 100 µM (inactive) | > 100 µM (inactive) | > 100 µM | > 100 µM (inactive) | > 100 µM (inactive) | > 100 µM (inactive) | > 100 µM (inactive) | > 100 µM (inactive) | 29.6 µM (inactive) | > 100 µM (inactive) | – | > 100 µM (inactive) | > 100 µM (inactive) | > 100 µM (inactive) | > 100 µM (inactive) | > 100 µM (inactive) | – | – | > 100 µM (inactive)
COc1ccc2c(c1OC)OCC(CN(C)C)C2=O (stereo not drawn) | 26.1 µM (inactive) | 18.8 µM (inactive) | 17.4 µM (inactive) | 18.1 µM | 18.8 µM (inactive) | 19.5 µM (inactive) | > 44.6 µM (inactive) | 22.9 µM (inactive) | 22.1 µM (inactive) | 18.7 µM (inactive) | 2.42 µM (inactive) | 25.4 µM (inactive) | 17.7 µM (inactive) | 18.5 µM (inactive) | > 100 µM (inactive) | 1.87 µM (inactive) | 19.9 µM (inactive) | 16.7 µM (inactive) | 16.7 µM (inactive) | 18.2 µM (inactive)
Nc1ncc(Cc2ccc3c(c2)OCO3)c(N)n1 | > 100 µM (inactive) | > 100 µM (inactive) | > 100 µM (inactive) | > 100 µM | > 100 µM (inactive) | > 100 µM (inactive) | > 100 µM (inactive) | > 100 µM (inactive) | > 100 µM (inactive) | > 100 µM (inactive) | > 100 µM (inactive) | > 100 µM (inactive) | > 100 µM (inactive) | > 100 µM (inactive) | > 100 µM (inactive) | > 100 µM (inactive) | 91.4 µM (inactive) | > 100 µM (inactive) | > 100 µM (inactive) | > 100 µM (inactive)
C/C1=C\CC/C(C)=C/C=C(/C(C)C)CC/C(C(=O)O)=C/CC1 [CROTOCEMBRANEIC ACID] | 34.3 µM (inactive) | 61.2 µM (inactive) | 40.3 µM (inactive) | 37.8 µM | 56.5 µM (inactive) | 44.4 µM (inactive) | 34.8 µM (inactive) | 55.1 µM (inactive) | 66.2 µM (inactive) | 40.2 µM (inactive) | 22.8 µM (inactive) | 72.8 µM (inactive) | 36 µM (inactive) | 45.3 µM (inactive) | 53.3 µM (inactive) | 22 µM (inactive) | 23.2 µM (inactive) | 56.8 µM (inactive) | 82.8 µM (inactive) | 72.8 µM (inactive)
COc1ccc(CCCNC(=O)c2cc(OC)c(OC)cc2CCO)cc1OC | > 100 µM (inactive) | > 100 µM (inactive) | > 100 µM (inactive) | > 100 µM | > 100 µM (inactive) | > 100 µM (inactive) | > 100 µM (inactive) | > 100 µM (inactive) | > 100 µM (inactive) | > 100 µM (inactive) | > 100 µM (inactive) | > 100 µM (inactive) | > 100 µM (inactive) | > 100 µM (inactive) | > 100 µM (inactive) | > 100 µM (inactive) | > 100 µM (inactive) | > 100 µM (inactive) | > 100 µM (inactive) | > 100 µM (inactive)
CCc1c(Cc2cc(C)cc(C)c2)n2c(nc1=O)SCC2CBr (stereo not drawn) | > 50 µM (inactive) | 23.1 µM (inactive) | > 50 µM (inactive) | > 50 µM | 19.6 µM (inactive) | > 50 µM (inactive) | > 50 µM (inactive) | 46.1 µM (inactive) | 10.4 µM (inactive) | > 50 µM (inactive) | > 50 µM (inactive) | > 50 µM (inactive) | > 50 µM (inactive) | > 50 µM (inactive) | 23.1 µM (inactive) | > 50 µM (inactive) | 22.6 µM (inactive) | 34 µM (inactive) | > 50 µM (inactive) | > 50 µM (inactive)
O=c1[nH]c(=O)n(C2OC(CO)C(O)C2O)c2c1CCCC2 (stereo not drawn) | > 100 µM (inactive) | > 100 µM (inactive) | > 100 µM (inactive) | > 100 µM | > 100 µM (inactive) | > 100 µM (inactive) | > 100 µM (inactive) | > 100 µM (inactive) | > 100 µM (inactive) | > 100 µM (inactive) | > 100 µM (inactive) | > 100 µM (inactive) | > 100 µM (inactive) | > 100 µM (inactive) | > 100 µM (inactive) | > 100 µM (inactive) | > 100 µM (inactive) | > 100 µM (inactive) | > 100 µM (inactive) | > 100 µM (inactive)
Cc1cc(S(=O)(=O)/N=C(\NN)NCC(=O)NN)c(S)cc1Cl | > 10 µM (inactive) | > 10 µM (inactive) | > 10 µM (inactive) | > 10 µM | > 10 µM (inactive) | > 10 µM (inactive) | > 10 µM (inactive) | > 10 µM (inactive) | > 10 µM (inactive) | > 10 µM (inactive) | > 10 µM (inactive) | > 10 µM (inactive) | 8.85 µM (inactive) | > 10 µM (inactive) | > 10 µM (inactive) | > 10 µM (inactive) | > 10 µM (inactive) | > 10 µM (inactive) | > 10 µM (inactive) | –
COc1cc(/C=N/NC(=O)c2c(Cl)c(Cl)c(Cl)c(Cl)c2-c2nc3cc(C(=O)c4ccccc4)ccc3[nH]2)ccc1O | 42.1 µM (inactive) | 73.8 µM (inactive) | 36.1 µM (inactive) | 15.6 µM | 26.8 µM (inactive) | 13.8 µM (inactive) | – | 49.1 µM (inactive) | 59.3 µM (inactive) | 35.2 µM (inactive) | 30.8 µM (inactive) | 36.9 µM (inactive) | 20.4 µM (inactive) | 36.5 µM (inactive) | 62.1 µM (inactive) | 11.5 µM (inactive) | 22.6 µM (inactive) | 45.5 µM (inactive) | 60.8 µM (inactive) | 45.6 µM (inactive)
